# According to patent US12590083B2, “Inhibitors of spinster homolog 2 (SPNS2) for use in therapy” (University of Virginia Patent Foundation, priority 2019, dated 2026):
# Where a name gives a salt, the structure may show the parent alone.
# Target: T1, human SPNS2 (Homo sapiens, UniProt Q8IVW8)
# T1 construct: expressed in transfected cells; host or cells: Saccharomyces cerevisiae strain with forced expression of a mammalian SphK and human SPNS2
# T1 sequence (Q8IVW8 1-549): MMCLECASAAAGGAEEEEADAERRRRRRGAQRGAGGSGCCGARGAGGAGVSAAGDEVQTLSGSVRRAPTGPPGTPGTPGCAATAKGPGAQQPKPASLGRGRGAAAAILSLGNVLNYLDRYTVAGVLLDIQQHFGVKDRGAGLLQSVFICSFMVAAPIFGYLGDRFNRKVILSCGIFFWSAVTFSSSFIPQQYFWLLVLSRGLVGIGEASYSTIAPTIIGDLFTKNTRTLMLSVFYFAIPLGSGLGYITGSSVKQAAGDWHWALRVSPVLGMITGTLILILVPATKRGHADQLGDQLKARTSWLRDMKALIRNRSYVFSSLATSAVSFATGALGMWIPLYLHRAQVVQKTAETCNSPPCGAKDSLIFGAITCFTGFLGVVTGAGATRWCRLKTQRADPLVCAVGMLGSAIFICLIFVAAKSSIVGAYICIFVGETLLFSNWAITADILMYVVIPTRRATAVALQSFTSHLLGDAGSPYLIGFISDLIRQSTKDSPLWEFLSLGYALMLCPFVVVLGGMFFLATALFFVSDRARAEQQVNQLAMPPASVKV
# Test: S1P transporter assay: growth of S. cerevisiae strain with forced expression of a mammalian SphK and human SPNS2
# Format: cell-based
# Settings: in vitro inhibition of SPNS2; growth of S. cerevisiae strain expressing mammalian SphK and human SPNS2; compounds as their pharmaceutical salts
# Excerpt: Transporter assays are vectorial and, therefore, require measurement of the transported analyte in different compartments. The assay of S1P transporters is problematic because S1P is exported, but not imported, by SPNS2, which obviates measuring uptake of mass- or radio-labeled S1P into transporter-expressing cells.
# To assay for SPNS2 inhibitor hits, we took advantage of the growth inhibitory effects of excessive levels of phosphorylated Long Chain Base (phospho-LCB) levels on the budding yeast, S. cerevisiae (Kharel Y, et al. Saccharomyces cerevisiae as a platform for assessing sphingolipid lipid kinase inhibitors. PLoS One 13, e0192179 (2018) PMC5908134). Yeast lack the desaturase that converts dihydroceramide to ceramide and, therefore, have neither sphingosine nor S1P. Rather, yeast have the reduced form, dihydrosphingosine, and the 4-hydroxyl analog, phytosphingosine and their respective phosphates. Like all eukaryotes, the yeast synthesizes (via LCB kinases (SphKs)) and degrades (via phospho-LCB lyase and phosphatase) phospho-LCBs, (dhS1P, phytoS1P). Yeast lack phospho-LCB transporters such as SPNS2, which are found only in vertebrates. To assess inhibition of SPNS2 in vitro, we used a strain of S. cerevisiae wherein expression of a mammalian SphK and human SPNS2 were forced. SPNS2 inhibitors decrease the growth of this strain. Table 2 below presents in vitro inhibition data against SPNS2 for exemplary compounds, presented here as their pharmaceutical salts, of the disclosure (A≤2 μM, B>2 μM).
row,Compound,IC50
1,"C/C(=N\OCc1ccc(Br)cc1)c1ccc(-c2noc([C@@H]3CCNC3)n2)cc1 [Compound 38n, (R)-1-(4-(5-(pyrrolidin-3-yl)-1,2,4-oxadiazol-3-yl)phenyl)ethan-1-one O-(4-bromobenzyl) oxime hydrochloride]",≤ 2000 nM
2,"CCCCCCCCNc1ccc(-c2noc([C@@H]3CCNC3)n2)cn1 [Compound 13b, (R)—N-octyl-5-(5-(pyrrolidin-3-yl)-1,2,4-oxadiazol-3-yl)pyridin-2-amine hydrochloride]",> 2000 nM
3,"CC(C)(C)c1cccc(Nc2ccc(-c3noc([C@@H]4CCN(C(=N)N)C4)n3)cn2)c1 [Compound 15g, (R)-3-(3-(6-((3-(tert-butyl)phenyl)amino)pyridin-3-yl)-1,2,4-oxadiazol-5-yl)pyrrolidine-1-carboximidamide hydrochloride]",> 2000 nM
4,CCCCCCCCCOc1ccc(-c2noc([C@@H]3CCCNC3)n2)cc1C(F)(F)F [Compound 12e],≤ 2000 nM
5,"CCCCCCCO/N=C(\C)c1ccc(-c2noc([C@@H]3CCNC3)n2)cc1 [Compound 38i, hydrochloride]",> 2000 nM
6,"CCCCCCCCCCc1ccc(-c2noc([C@H]3CCN(C(=N)N)C3)n2)cc1 [Compound 7e, (S)-amino(3-(3-(4-decylphenyl)-1,2,4-oxadiazol-5-yl)pyrrolidin-1-yl)methaniminium chloride]",> 2000 nM
7,"N=C(N)N1CCC[C@@H](c2nc(-c3ccc(Nc4ccc(OC(F)(F)F)c(F)c4)nc3)no2)C1 [Compound 15c, (R)-3-(3-(6-((3-fluoro-4-(trifluoromethoxy)phenyl)amino)pyridin-3-yl)-1,2,4-oxadiazol-5-yl)piperidine-1-carboximidamide hydrochloride]",> 2000 nM
8,"CCCCCCCCCOc1ccc(-c2noc(C3CN(C(=N)N)C3)n2)cc1C(F)(F)F [Compound 23b, 3-(3-(4-(nonyloxy)-3-(trifluoromethyl)phenyl)-1,2,4-oxadiazol-5-yl)azetidine-1-carboximidamide hydrochloride]",≤ 2000 nM
9,"C/C(=N\OCc1ccc(-c2ccccc2)cc1)c1ccc(-c2noc([C@@H]3CCNC3)n2)cc1 [Compound 38d, (R)-1-(4-(5-(pyrrolidin-3-yl)-1,2,4-oxadiazol-3-yl)phenyl)ethan-1-one O-([1,1′-biphenyl]-4-ylmethyl) oxime hydrochloride]",> 2000 nM
10,"CCCCCCCCCc1ccc(-c2noc([C@@H]3CCCN(C(=N)N)C3)n2)cc1C(F)(F)F [Compound 30d, (R)-3-(3-(4-nonyl-3-(trifluoromethyl)phenyl)-1,2,4-oxadiazol-5-yl)piperidine-1-carboximidamide hydrochloride]",≤ 2000 nM
11,"C/C(=N\OCCCCc1ccccc1)c1ccc(-c2noc([C@@H]3CCNC3)n2)cc1 [Compound 38a, (R)-1-(4-(5-(pyrrolidin-3-yl)-1,2,4-oxadiazol-3-yl)phenyl)ethan-1-one O-(4-phenylbutyl) oxime hydrochloride]",≤ 2000 nM
12,"CCCCCCCCCCc1ccc(-c2noc([C@@H]3CCCN(C(=N)N)C3)n2)cc1C(F)(F)F [Compound 30e, (R)-3-(3-(4-decyl-3-(trifluoromethyl)phenyl)-1,2,4-oxadiazol-5-yl)piperidine-1-carboximidamide hydrochloride]",≤ 2000 nM
13,"C/C(=N\OCc1ccc(F)cc1)c1ccc(-c2noc([C@@H]3CCN(C(=N)N)C3)n2)cc1 [Compound 40m, (R)-3-(3-(4-(1-(((4-fluorobenzyl)oxy)imino)ethyl)phenyl)-1,2,4-oxadiazol-5-yl)pyrrolidine-1-carboximidamide hydrochloride]",> 2000 nM
14,"CCCCCCCCCCc1ccc(-c2noc([C@@H]3CCNC3)n2)cc1 [Compound 5g, (R)-3-(3-(4-decylphenyl)-1,2,4-oxadiazol-5-yl)pyrrolidin-1-ium 2,2,2-trifluoroacetate]",> 2000 nM
15,"CCCCCCCCCCc1ccc(-c2noc([C@@H]3CCCN(C(=N)N)C3)n2)cc1 [Compound 7h, (R)-amino(3-(3-(4-decylphenyl)-1,2,4-oxadiazol-5-yl)piperidin-1-yl)methaniminium chloride]",> 2000 nM
16,"Clc1ccccc1Nc1ccc(-c2noc([C@@H]3CCNC3)n2)cn1 [Compound 13e, (R)—N-(2-chlorophenyl)-5-(5-(pyrrolidin-3-yl)-1,2,4-oxadiazol-3-yl)pyridin-2-amine hydrochloride]",> 2000 nM

row,Compound,IC50
1,"CCCCCCCCOc1ccc(-c2noc([C@@H]3CCCN(C(=N)N)C3)n2)cc1C(F)(F)F [Compound 23d, (R)-3-(3-(4-(octyloxy)-3-(trifluoromethyl)phenyl)-1,2,4-oxadiazol-5-yl)piperidine-1-carboximidamide hydrochloride]",> 2000 nM
2,"C/C(=N\OCc1ccccc1)c1ccc(-c2noc([C@@H]3CCNC3)n2)cc1 [Compound 38g, (R)-1-(4-(5-(pyrrolidin-3-yl)-1,2,4-oxadiazol-3-yl)phenyl)ethan-1-one O-benzyl oxime hydrochloride]",> 2000 nM
3,"CCCCCCCCCCc1ccc(-c2noc([C@@H]3CCN(C(=N)N)C3)n2)cc1 [Compound 7g, (R)-amino(3-(3-(4-decylphenyl)-1,2,4-oxadiazol-5-yl)pyrrolidin-1-yl)methaniminium chloride]",> 2000 nM
4,"C/C(=N\OC(C)c1ccccc1)c1ccc(-c2noc([C@@H]3CCN(C(=N)N)C3)n2)cc1 (stereo partly shown) [Compound 40f, hydrochloride]",> 2000 nM
5,"CCCCCCCCCc1ccc(-c2noc([C@@H]3CCCNC3)n2)cc1C(F)(F)F [Compound 28d, (R)-3-(4-nonyl-3-(trifluoromethyl)phenyl)-5-(piperidin-3-yl)-1,2,4-oxadiazole hydrochloride]",> 2000 nM
6,"CCCCCCCCCO/N=C(\C)c1ccc(-c2noc([C@@H]3CCNC3)n2)cc1 [Compound 38j, hydrochloride]",> 2000 nM
7,"CCCCCCCCCCc1ccc(-c2noc(C[C@@H]3CCCN(C(=N)N)C3)n2)cc1 [Compound 7q, (S)-3-((3-(4-decylphenyl)-1,2,4-oxadiazol-5-yl)methyl)piperidine-1-carboximidamide 2,2,2-trifluoroacetate]",≤ 2000 nM
8,"CCCCCCCCCc1ccc(-c2noc([C@@H]3CCN(C(=N)N)C3)n2)cc1 [Compound 7xb, (R)-3-(3-(4-nonylphenyl)-1,2,4-oxadiazol-5-yl)pyrrolidine-1-carboximidamide hydrochloride]",≤ 2000 nM
9,"CCCCCCCCNC(=O)c1ccc(-c2noc([C@@H]3CCN(C(=N)N)C3)n2)cc1 [Compound 40p, (R)-4-(5-(1-carbamimidoylpyrrolidin-3-yl)-1,2,4-oxadiazol-3-yl)-N-octylbenzamide hydrochloride]",> 2000 nM
10,"CCCCCCCCCCOc1ccc(-c2noc([C@@H]3CCCNC3)n2)cc1C(F)(F)F [Compound 21f, (R)-3-(4-(decyloxy)-3-(trifluoromethyl)phenyl)-5-(piperidin-3-yl)-1,2,4-oxadiazole hydrochloride]",> 2000 nM
11,"C/C(=N\OCCCCc1ccccc1)c1ccc(-c2noc([C@@H]3CCN(C(=N)N)C3)n2)cc1 [Compound 40a, (R)-3-(3-(4-(1-((4-phenylbutoxy)imino)ethyl)phenyl)-1,2,4-oxadiazol-5-yl)pyrrolidine-1-carboximidamide hydrochloride]",≤ 2000 nM
12,"CCCCCCCCCc1ccc(-c2noc(C3CN(C(=N)N)C3)n2)cc1 [Compound 7c, 3-(3-(4-nonylphenyl)-1,2,4-oxadiazol-5-yl)azetidine-1-carboximidamide hydrochloride]",≤ 2000 nM
13,"C/C(=N\OCc1ccc(C(C)(C)C)cc1)c1ccc(-c2noc([C@@H]3CCNC3)n2)cc1 [Compound 38k, (R,E)-1-(4-(5-(pyrrolidin-3-yl)-1,2,4-oxadiazol-3-yl)phenyl)ethan-1-one O-(4-(tert-butyl)benzyl) oxime hydrochlorid]",≤ 2000 nM
14,"CCCCCCCCCCc1ccc(-c2noc([C@@H]3CCCNC3)n2)cc1 [Compound 5h, (R)-3-(3-(4-decylphenyl)-1,2,4-oxadiazol-5-yl)piperidin-1-ium 2,2,2-trifluoroacetate]",> 2000 nM
15,"CCCCCCCCCCCc1ccc(-c2noc([C@@H]3CCCN(C(=N)N)C3)n2)cc1C(F)(F)F [Compound 30f, (R)-3-(3-(3-(trifluoromethyl)-4-undecylphenyl)-1,2,4-oxadiazol-5-yl)piperidine-1-carboximidamide hydrochloride]",> 2000 nM
